Source: ChEMBL document CHEMBL4823329, “Trisubstituted 1,3,5-Triazines: The First Ligands of the sY12-Binding Pocket on Chemokine CXCL12” (ACS Med Chem Lett, 2021)

Target: Stromal cell-derived factor 1 (Homo sapiens, UniProt P48061)
Assay: Binding affinity to wild type CXCL12 (unknown origin) by NMR spectroscopy
Conditions: not given; call rule not given here

Sequence of Stromal cell-derived factor 1 (P48061 whole entry): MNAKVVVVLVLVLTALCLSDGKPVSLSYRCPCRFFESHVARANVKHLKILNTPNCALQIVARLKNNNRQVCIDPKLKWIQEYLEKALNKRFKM

Compound	Kd
O=C(O)CSc1nc(SCC(=O)O)nc(-c2c3ccccc3cc3ccccc23)n1	Not Active
O=C(O)c1ccc(Nc2nc(Nc3ccc(C(=O)O)cc3)nc(-c3ccccc3)n2)cc1	Nd(Insoluble)
O=C(O)CSc1nc(SCC(=O)O)nc(-c2ccc(Oc3ccccc3)cc2)n1	Nd(Insoluble)

The next lines start with the values.

Kd	Compound
Nd(Insoluble)	O=C(O)CSc1nc(SCC(=O)O)nc(C2=CCCCC2)n1
Nd(Insoluble)	O=C(O)CSc1nc(SCC(=O)O)nc(-c2ccc(-c3ccccc3)cc2)n1
Nd(Insoluble)	O=C(O)CSc1nc(SCC(=O)O)nc(-c2cnc3ccccc3c2)n1
Not Active	O=C(O)CSc1nc(SCC(=O)O)nc(C2C3CC4CC(C3)CC2C4)n1 (stereo unspecified)
Nd(Insoluble)	O=C(O)CSc1nc(SCC(=O)O)nc(-c2ccoc2)n1

Same assay, conditions: read-out: Kd

Compound	Kd [µM]
C[N+]1(c2nc(SCC(=O)O)nc(SCC(=O)O)n2)CCOCC1	3020
O=C(O)CSc1nc(SCC(=O)O)nc(-c2ccc(N3CCOCC3)cc2)n1	306
O=C(O)CSc1nc(SCC(=O)O)nc(N2CCOCC2)n1	234
